The subject of series [1] is DSS-induced inflammation of the lower colon. The series can be described thus: Dextran sodium sulfate (DSS) mouse model of IBD. Format: in vivo. To be noted: DSS mice. The source says: (§1) In this example, β-gluc-1,25-D3 compounds, alone or in combination with 25-β-glucuronide-25-hydroxyvitamin D3 compounds (hereinafter β-gluc-25-D3) were incorporated into the diet of mice and compared to equimolar 1,25-D3 with respect to therapeutic effects on IBD and induction of calcemia. A standard mouse model of IBD comprising administering dextran sodium sulfate (DSS) to induce inflammation of the lower colon was used to study these effects. Vitamin D treatments were first initiated for 4 days. After 4 days, mice were fed DSS-water for 7 days, allowed one day to recover, and sacrificed. Colon length, plasma calcium, fecal blood score, and body weight were assayed. Colon length is a standard marker of intestinal inflammation in the literature, with shortened colon length being an indicator of inflammation. A 1-cm section of the mid-colon was removed, fixed in formalin, and stained with hematoxylin & eosin for microscopic histopathologic evaluation by a veterinary pathologist blinded to the treatments. Each tissue section received a score from 0 to 4 reflecting absence of lesion to severe, extensive lesion for each of three criteria: (1) the degree of erosion/ulceration of colon mucosa; (2) the degree of infiltration of the tissues by inflammatory cells; and (3) the degree of submucosal edema. The sum of the score of each of these criteria constitutes the histopathological score for the tissue with a zero score representing normal tissue based on all criteria, and the worst possible outcome being a score of 12.

The nature of series [2]: Plasma calcium in the DSS mouse model of IBD. To be noted: DSS mice, 5000 ng/day in diet. Format: in vivo.
Excerpt: as §1

Series [3] in a line: Hypercalcemic effect: plasma calcium in rats under continuous subcutaneous infusion. The series is classed as in vivo. To be noted: for Plasma Calcium Mean ± SD: 12th day, in mg/dL (unit assumed). As to the method:
The pumps were filled aseptically with the appropriate dose of drug dissolved in propylene glycol. The pumps were surgically implanted under the skin on the dorsal neck and shoulder area aseptically. On the 12th day of infusion, rats were deeply anesthetized (isofluorane inhalation) and blood was collected by cardiac puncture for plasma calcium determination. The plasma calcium levels were determined by standard methods.

Series [4] deals with β-glucuronidase activity, duodenum lumen contents. The series is described as follows: β-glucuronidase cleavage in duodenum lumen contents, free 1,25-D3 by RIA. The following applies: 150 pg added. Format: in vitro ADME, rats.
Procedure: (§3) The proximal 25 cm of duodenum/jejunum, the caudal 12 cm of ileum, and the cranial 12 cm of colon were removed. The contents from the lumen of each section were flushed with 3 ml water, collected, and pooled. Three-ml aliquots of intestinal contents were placed into tubes. To the tubes, either 2100 pg (3.53 pmoles) β-gluc-1,25-D3 was added and incubated at 37° C. for 0, 1, 3, or 6 hrs, or 150 pg (0.36 pmoles) of 1,25-D3 was added and incubated for 0 or 6 hrs. […] Acetonitrile (3 ml) was added to each tube after incubation to end all enzymatic activity, after which the 1,25-D3 was extracted. Tritiated 1,25-D3 was added to each tube to assess extraction efficiency. The preparations were cleaned by HPLC, and the samples were analyzed for 1,25-D3 content by RIA (Heartland Assays, Ames, Iowa) (Hollis et al., J. Steroid Biochem. Mol. Biol. 2007 103(3-5):473-6).
Series [5] relates to β-glucuronidase activity, ileum lumen contents. The series is described as follows: β-glucuronidase cleavage in ileum lumen contents, free 1,25-D3 by RIA. The series is classed as in vitro ADME, rats. The following applies: 150 pg added.
Procedure: as §3
Series [6] concerns Cyp24. The series is described as follows: Cyp24 mRNA expression in colon of mice after a single oral dose. Format: in vivo. To be noted: 6 hrs. As to the method:
(§2) Mice were decapitated 6 hrs later following light anesthesia under inhaled halothane. […] Tissue samples were flushed with ice-cold phosphate-buffered saline and immediately homogenized in 1 ml of TRIzol® reagent (Invitrogen Corp., Carlsbad, Calif.). Samples were then kept frozen at −86° C. prior to processing for RNA. For processing RNA, each TRIzol® homogenate was thawed at room temperature and 500 μl placed in a clean microfuge tube, mixed thoroughly with 100 μl chloroform for 15 sec and then centrifuged at 12,000×g for 15 min at 4° C. The upper aqueous phase was removed and mixed with 0.93 volumes of 75% EtOH. The mixture was then applied to an RNeasy spin column (Qiagen Inc., Germantown, Md.) and processed as described by the manufacturer with the exception that an additional wash with 2M NaCl/2 mM EDTA (pH 4.0) was included (Das et al. J Vet Diagn Invest. 2009; 21:771-778). RNA was eluted in 50 μl of water and the concentration obtained by UV spectrometry. One microgram of RNA was then used as a template for production of cDNA in a 20-μl reaction volume using random hexamers and Superscript III as described by the manufacturer (Invitrogen, Carlsbad, Calif.). Afterwards, samples were diluted to 100 μl final volume with TE buffer and stored at −20° C. prior to PCR analysis. Quantitative real-time RT-PCR was performed using a Stratagene Mx3005p cycler (Stratagene, La Jolla, Calif.) and PerfeCTa® SYBR® Green FastMix®, ROX reagent (Quanta Biosciences, Gaithersburg, Md.). Amplification of target cDNAs was accomplished with the following primers: Aliquots (8.3 ng) of cDNA were amplified under the following conditions: 95° C. for 30 sec, followed by 45 cycles of 95° C. for 1 sec and 57° C. for 30 sec. […] Oligonucleotides were obtained from Integrated DNA Technologies (Coralville, Iowa).

Series [7] deals with Cyp24. The series can be described thus: Cyp24 mRNA expression in duodenum of mice after a single oral dose. The series is classed as in vivo. The following applies: for Cyp24 expression in the duodenum, induction over control mice: 24 pmol per os. As to the method: as §2
The next series has as its system LNCaP cells. The series can be described thus: LNCaP cell proliferation (CELLTITER BLUE). Format: cell-based, human. The following applies: six days, control = 100. As to the method: LNCaP cells (ATCC # CRL-1740) are malignant prostate cancer cells originally obtained from a lymph node of a person whose prostatic cancer had metastasized to the lymph node. LNCaP cells were grown in tissue culture using RPMI-1640 media with 10% fetal bovine serum. Wells of two 48-well tissue culture plates were seeded with 5000 LNCaP cells/well. […] Half the media was replaced with fresh media with treatments on the third day of the treatment period. By day 6 of treatment, wells of control untreated cells were approximately 60% confluent. The live cell numbers in each well at the end of treatment were assessed using the “CELLTITER BLUE”-brand assay kit (Promega Corp., Madison, Wis.). The assay is based on the ability of living cells to convert a redox dye (resazurin) into a fluorescent end product (resorufin).

The test system of another series is DU-145 cells. The series can be described thus: DU-145 cell proliferation (CELLTITER BLUE). Format: cell-based, human. To be noted: 4 days, control = 100. How it is done: LNCaP cells (ATCC # CRL-1740) are malignant prostate cancer cells originally obtained from a lymph node of a person whose prostatic cancer had metastasized to the lymph node. LNCaP cells were grown in tissue culture using RPMI-1640 media with 10% fetal bovine serum. Wells of two 48-well tissue culture plates were seeded with 5000 LNCaP cells/well. […] Half the media was replaced with fresh media with treatments on the third day of the treatment period. By day 6 of treatment, wells of control untreated cells were approximately 60% confluent. The live cell numbers in each well at the end of treatment were assessed using the “CELLTITER BLUE”-brand assay kit (Promega Corp., Madison, Wis.). The assay is based on the ability of living cells to convert a redox dye (resazurin) into a fluorescent end product (resorufin). […] A similar study was performed using a second human-derived prostatic cancer cell line known as DU-145 (ATCC# HTB-81). […] Exp. Med. Biol. 1995 375:53-63). The DU-145 cells were propagated in Eagle's Minimum Essential Medium with 10% fetal bovine serum. The cells were treated in culture for just 4 days, with half the media replaced with fresh media on day 3 of treatment. Cells were 40% confluent at the end of treatment.
(Resazurin is reduced to fluorescent resorufin, in cell work by metabolically active cells.)

The test system of another series is intestinal inflammation. The following applies: Froicu et al., cited from earlier work.
Series [8] is described as follows: Plasma 1,25-D3 concentration in mice after a single oral dose (RIA).
For series [9] the following is noted: calcitriol = 1; cited from earlier work.

Marks after values point to notes of the source that are not given here.

Consider “25-β-glucuronide-25-hydroxyvitamin D3 [β-gluc-25-D3]”, for which, in [1] (5000 ng/day), the “Histopathology score (0-12)” value came out at 8.22 ± 0.72 and the “effect on IBD by itself” value is “essentially ineffective by itself”. Further, in series [1] (5000 ng/day in diet), the “Colon Length” value turned out to be 5.50 ± 0.20 cm and the “Final Body Weight” value turned out to be 21.16 ± 0.53 g. For the same compound, in series [1] (5000 ng/day, scale 0-3), the “Fecal Blood Score” value is listed as 1.05 ± 0.34. In addition, the “Plasma Calcium” value in [2] is listed as 8.68 ± 0.27^d mg/dl.
With `C=C1/C(=C\C=C2/CCC[C@]3(C)[C@@H]([C@H](C)CCCC(C)(C)O)CC[C@@H]23)C[C@@H](O)C[C@@H]1O` [1,25-D3, 1,25-dihydroxyvitamin D3, reference compound], the “Plasma Calcium Mean ± SD” value is 10.41 ± 0.27 in series [3] (10 ng/day continuous s.c. infusion) and 10.78 ± 0.26 in series [3] (15 ng/day continuous s.c. infusion). The “lowest dose inducing a statistically significant increase in plasma calcium levels” value in series [3] (continuous s.c. infusion) is given as 15 ng/day. For the same compound, the “Significantly greater than control? Duncan's Multiple Range Test” value in series [3] (plasma calcium, 15 ng/day) is reported as “Yes”. Besides, the “Measured Free 1,25-dihydroxy vitamin D” value in series [4] (0 hrs incubation, 37° C.) was found to be 96 pg; in series [4] (6 hrs incubation), 117 pg; in series [5] (0 hrs incubation), 129 pg; in [5] (6 hrs incubation), 128 pg. In addition, in the series with Cyp24 [6] (24 pmol per os), the “increase in Cyp24 in the colon over control mice” value was “about 5 fold”. Besides, the “increase in Cyp24 expression in the colon” value in the series on Cyp24 [6] (48 pmol per os, relative to untreated mice) is listed as roughly 4.8±4 fold. Further, the “Cyp24 expression in the duodenum, induction over control mice” value in the series with Cyp24 [7] (1 hour) is on record as 350 fold; in the series on Cyp24 [7] (3 hours), 1600 fold; in the series on Cyp24 [7] (6 hours) it was “more than 2500 fold”. In the series on Cyp24 [7] (48 pmol per os, 6 hrs), the “induction of Cyp24 gene expression in the duodenum” value is greater than 1000 fold. Further, the entries for the “Colon Length” value in series [1] (10 ng/day in diet) and in series [1] (50 ng/day in diet) were 5.52 ± 0.20 cm and 5.74 ± 0.17 cm, respectively. Moreover, the results for the “Final Body Weight” value in [1] (10 ng/day in diet) and in series [1] (50 ng/day in diet) were 21.39 ± 0.82 g and 20.82 ± 0.43 g, respectively. The “Fecal Blood Score” value in series [1] (10 ng/day, 0 = no blood to 3 = multiple blood spots) is 0.33 ± 0.12^c; in series [1] (50 ng/day, scale 0-3), 0.22 ± 0.12^c. The “Histopathology score (0-12)” value in series [1] (10 ng/day, 0 = no lesions, 12 = severe) is given as 7.44 ± 0.50; in [1] (50 ng/day) it was 5.89 ± 0.54^c. Besides, the “histopathological scores among the effective treatments” value in series [1] (50 ng/day) is recorded as “numerically the best”. Further, in series [1] (50 ng/day), the “improving inflammation” value was “less effective than the 70-ng/day β-gluc-1,25-D3 plus 5000 ng/day β-gluc-25-D3 combination treatment”. For the same compound, the “Proliferation index (Mean ± SEM)” value is 69.7 ± 8.4 in the series with LNCaP cells (20 nM); 63.8 ± 7.3 with LNCaP cells (100 nM); 94.7 ± 1.7 with DU-145 cells (DU-145, 20 nM); 89.3 ± 2.4 with DU-145 cells (DU-145, 100 nM). Besides, the “hypercalcemia at the effective dose” value with intestinal inflammation (50 ng) is “results in hypercalcemia”. For the same compound, the “dose required to improve intestinal inflammation” value with intestinal inflammation (mouse model of inflammatory disease) is 50 ng. Further, the “plasma 1,25-D3 concentration” value is listed as “not significantly increased” in series [8] (6 pmol per os, 6 hr time point) and “slightly below the concentration observed in control animals” in series [8] (24 pmol per os, 24 hrs after treatment). In addition, in [8] (24 pmol per os), the “peak plasma 1,25-D3, fold over control mouse plasma 1,25-D3” value is given as roughly 14 fold. Moreover, in [8] (24 pmol per os), the “peak plasma concentration of 1,25-D3” value is 1280 pg/mL. Besides, the “time of peak plasma 1,25-D3 concentration” value in series [8] (24 pmol per os) came out at 1 h.
Turning to `C=C1/C(=C\C=C2/CCC[C@]3(C)[C@@H]([C@H](C)/C=C/[C@@H](O)C4CC4)CC[C@@H]23)C[C@@H](O)CC1O` (stereo partly drawn) [calcipotriol], the calcemic index result in series [9] is “about 0.01”.
